Experiment [1] relates to small colony diphtheroids. The conditions noted are these: human stratum corneum blended in physiological saline; U.S. Patent No. 4,518,517; cited from earlier work.
Experiment [2] relates to adherence of aerobic diphtheroids to differentiated HE cells. The experiment can be described thus: Inhibition of bacterial adherence to differentiated human epithelial cells. As to conditions: for inhibition at 17000 µg/mL: Homo sapiens, Epithelial cell; for inhibition at 17000 µg/mL / inhibition of attachment of aerobic skin bacteria to differentiated HE cells (in words): 17 mg/ml final concentration. It counts as cell-based.

The test system of experiment [3] is adherence of aerobic diphtheroids to undifferentiated HE cells. The experiment can be described thus: Inhibition of bacterial adherence to undifferentiated human epithelial cells. As to conditions: 17 mg/ml final concentration. Format: cell-based. The procedure:
Skin microorganisms were isolated from the axillae of ten healthy human volunteers (male and female). Corynebacterium diphtheriae, Corynebacterium group J-K, and Escherichia coli 1677 were also obtained. The latter bacteria were included as controls for the adherence experiments. Microorganisms were maintained either by subculture on blood agar plates or trypticase soy agar base with 5% defibrinated sheep's blood. Stock cultures were frozen at -20°C in semi-solid trypticase soy agar for aerobes and chopped meat carbohydrate broth for anaerobes. For in vitro adherence assays the lipophilic corynebacteria were serially subcultured three times for periods of 24 hrs. in tryptose broth with 0.5% Tween-80.
Isolation of microorganisms from the axillae was performed by addition of 1 ml of a 0.1% Triton X-100 solution onto a sterile glass cylinder placed firmly on the skin in the axilla (total area 3.8cm²). […]
Human epithelial (HE) cells (primary culture from normal human epidermal keratinocytes) were used to assess the adherence of the axillary microorganisms. […] Differentiation of HE cells was induced by addition of calcium chloride (CaCl₂) to a concentration of 2 mM/L. Differentiation was assessed by mound formation (3 to 5 layers of cells) during tissue culture and by a modified Ayoub-Shklar's stain for differentiated epithelial cells. […]

The structures appear in SMILES notation.

These results are taken from patent EP0561489A2, “Deodorant compositions containing materials for inhibiting bacterial adherence, method of use thereof, and method for determining materials that inhibit bacterial adherence” (THE MENNEN COMPANY, priority 1992, dated 1993).

The inhibition is the drop in the measured response relative to a control, in per cent.

Take `OC[C@H]1O[C@@](CO)(O[C@H]2O[C@H](CO)[C@@H](O)[C@H](O)[C@H]2O)[C@@H](O)[C@@H]1O` [Sucrose, sucrose, reference compound]: the “effect on diphtheroid bacterial attachment to the skin sample (in words)” value (“effect” for short) in experiment [1] is “a greater amount of bacteria attached to the skin than one treated with mannose”. Moreover, the inhibition at 17000 µg/mL in experiment [2] is -12.8 to 22.6%.
For the molecule `OC[C@H]1O[C@@H](O[C@H]2[C@H](O)[C@@H](O)C(O)O[C@@H]2CO)[C@H](O)[C@@H](O)[C@H]1O` (stereo partly drawn) [lactose], the “effect” value in experiment [1] is given as “a greater amount of bacteria attached to the skin than one treated with mannose”.
Consider `O=C[C@H](O)[C@@H](O)[C@@H](O)[C@H](O)CO` [galactose, D(+) galactose], for which the “effect” value in experiment [1] was “neither galactose nor N-acetyl glucosamine had an effect”. In experiment [2], the “inhibition of attachment to differentiated epithelial cells (in words)” value is recorded as “poor capacity to inhibit attachment” and the inhibition at 17000 µg/mL lay in the range of 70 to 90%.
As for `C[C@@H](O)[C@H](O)[C@H](O)[C@@H](O)C=O` [fucose, D(+) fucose], the “inhibition of attachment of aerobic skin bacteria to undifferentiated HE cells (in words)” value in experiment [3] was “consistently able to inhibit attachment”. In experiment [2], the “inhibition of attachment of aerobic skin bacteria to differentiated HE cells (in words)” value is listed as “consistently able to inhibit attachment”.
`CC(=O)N[C@H]1C(O)O[C@H](CO)[C@@H](O)[C@@H]1O` (stereo partly drawn) [NAGA, N-acetyl-D-glucosamine]: the “effect” value in experiment [1] is on record as “neither galactose nor N-acetyl glucosamine had an effect”. The “inhibition of attachment of aerobic skin bacteria to undifferentiated HE cells (in words)” value in experiment [3] is reported as “consistently able to inhibit attachment”. In addition, the “inhibition of attachment of aerobic skin bacteria to differentiated HE cells (in words)” value in experiment [2] is listed as “consistently able to inhibit attachment”.
For the molecule `OC[C@H]1O[C@H](OC[C@H]2O[C@H](O[C@]3(CO)O[C@H](CO)[C@@H](O)[C@@H]3O)[C@H](O)[C@@H](O)[C@@H]2O)[C@H](O)[C@@H](O)[C@H]1O` [raffinose], in experiment [1], the “effect” value is recorded as “a greater amount of bacteria attached to the skin than one treated with mannose”.
As to `C[C@H](O)[C@H](O)[C@@H](O)[C@@H](O)C=O` [rhamnose], the “effect” value in experiment [1] is recorded as “a greater amount of bacteria attached to the skin than one treated with mannose”.
For `O=C(CO)[C@@H](O)[C@H](O)[C@H](O)CO` [fructose], the “effect” value in experiment [1] was “a greater amount of bacteria attached to the skin than one treated with mannose”.
As to `OC[C@H]1O[C@H](O[C@H]2[C@H](O)[C@@H](O)[C@H](O)O[C@@H]2CO)[C@H](O)[C@@H](O)[C@@H]1O` [maltose], the “effect” value in experiment [1] is on record as “a greater amount of bacteria attached to the skin than one treated with mannose”.
